Laboratory results reported in the NIST ThermoML archive (doi:10.1021/acs.jced.5b00536).
“And” between values parts separate entries of the source, which are not always exact repeats. Equal entries are not always repeated.

Assay: xn = mol fraction of the nth substance listed
Conditions: x2 = 0.79; for electrical conductivity / mass density: 100 kPa, Liquid; for electrical conductivity: Alternating current cell with electrodes; for mass density: Buoyancy - hydrostatic balance; for surface tension liquid-gas: Maximal bubble pressure

[Ca+2].[F-].[F-] [calcium fluoride] + [F-].[Li+]
Conditions | electrical conductivity [S/m] | mass density | surface tension liquid-gas [mN/m]
1063.8 K | 0.053003 | – | –
1065.5 K | 0.053101 | – | –
1067.1 K | 0.053153 | – | –
1068.8 K | 0.05333 | – | –
1070.4 K | 0.05353 | – | –
1071.9 K | 0.05375 | – | –
1073.5 K | 0.05359 | – | –
1075.2 K | 0.0537 | – | –
1075.7 K | – | 2107.8 kg/m3 | –
1075.9 K | – | 2107.3 kg/m3 | –
1076.2 K | – | 2106.7 kg/m3 and 2107.8 kg/m3 | –
1076.7 K | – | 2106.6 kg/m3 | –
1076.8 K | 0.05368 | 2106 kg/m3 | –
1077.1 K | – | 2106 kg/m3 | –
1077.5 K | – | 2105.4 kg/m3 | –
1077.7 K | – | 2104.8 kg/m3 | –
1078 K | – | 2104.8 kg/m3 | –
1078.4 K | – | 2104.2 kg/m3 | –
1078.5 K | 0.05386 | – | –
1078.7 K | – | 2104.1 kg/m3 | –
1079.1 K | – | 2103.5 kg/m3 | –
1079.4 K | – | 2103.5 kg/m3 | –
1079.8 K | – | 2102.9 kg/m3 | –
1080 K | – | 2102.9 kg/m3 | –
1080.1 K | 0.05394 | – | –
1080.3 K | – | 2102.3 kg/m3 | –
1080.7 K | – | 2101.7 kg/m3 | –
1081.1 K | – | 2101.6 kg/m3 | –
1081.4 K | – | 2101 kg/m3 | –
1081.8 K | 0.054 | 2101 kg/m3 | –
1082 K | – | 2100.4 kg/m3 | –
1082.4 K | – | 2099.8 kg/m3 | –
1082.9 K | – | 2099.7 kg/m3 | –
1083.4 K | 0.0542 | – | –
1083.5 K | – | 2099.1 kg/m3 | –
1083.6 K | – | 2099.1 kg/m3 | –
1083.8 K | – | 2098.5 kg/m3 | –
1084.3 K | – | 2098.5 kg/m3 | –
1084.5 K | – | 2097.9 kg/m3 | –
1085 K | – | 2097.8 kg/m3 | –
1085.1 K | 0.05436 | – | –
1085.5 K | – | 2097.2 kg/m3 | –
1085.9 K | – | 2096.6 kg/m3 | –
1086.1 K | – | 2096.6 kg/m3 | –
1086.4 K | – | 2096 kg/m3 | –
1086.8 K | 0.05455 | – | –
1086.9 K | – | 2095.9 kg/m3 | –
1087.2 K | – | 2095.3 kg/m3 | –
1087.8 K | – | 2094.7 kg/m3 | –
1088.2 K | – | 2094.7 kg/m3 | –
1088.4 K | 0.05469 | – | –
1088.6 K | – | 2094.1 kg/m3 | –
1088.8 K | – | 2094 kg/m3 | –
1089.3 K | – | 2093.4 kg/m3 | –
1089.5 K | – | 2092.8 kg/m3 | –
1090 K | – | 2092.8 kg/m3 | –
1090.1 K | 0.05496 | – | –
1090.5 K | – | 2092.2 kg/m3 | –
1090.8 K | – | 2092.1 kg/m3 | –
1091.2 K | – | 2093.7 kg/m3 | –
1091.7 K | – | 2093.7 kg/m3 | –
1091.8 K | 0.05506 | – | –
1091.9 K | – | 2093.1 kg/m3 | –
1092.8 K | – | 2091.9 kg/m3 and 2092.4 kg/m3 | –
1093.1 K | – | 2091.3 kg/m3 | –
1093.4 K | 0.05525 | – | –
1093.8 K | – | 2091.2 kg/m3 | –
1094.1 K | – | 2090.6 kg/m3 | –
1094.4 K | – | 2090.6 kg/m3 | –
1094.8 K | – | 2092.8 kg/m3 | –
1095 K | – | 2092.2 kg/m3 | –
1095.1 K | 0.05547 | – | –
1095.5 K | – | 2092.1 kg/m3 | –
1096.2 K | – | 2090.9 kg/m3 | –
1096.3 K | – | 2090.9 kg/m3 and 2091.5 kg/m3 | –
1096.7 K | – | 2090.3 kg/m3 | –
1096.8 K | 0.0556 | – | –
1096.9 K | – | 2089.7 kg/m3 | –
1097.3 K | – | 2089.1 kg/m3 | –
1097.6 K | – | 2089.1 kg/m3 | –
1098 K | – | 2088.5 kg/m3 | –
1098.4 K | – | 2087.9 kg/m3 | –
1098.5 K | 0.05571 | – | –
1098.8 K | – | 2087.3 kg/m3 | –
1099.1 K | – | 2087.2 kg/m3 | –
1099.5 K | – | 2086.6 kg/m3 | –
1099.9 K | – | 2086 kg/m3 | –
1100.2 K | 0.05586 | 2086 kg/m3 | –
1100.7 K | – | 2085.4 kg/m3 | –
1101 K | – | 2084.8 kg/m3 | –
1101.5 K | – | 2084.2 kg/m3 | –
1101.8 K | – | 2084.1 kg/m3 | –
1101.9 K | 0.05606 | – | –
1102.1 K | – | 2083.6 kg/m3 | –
1102.6 K | – | 2082.9 kg/m3 | –
1102.9 K | – | 2082.4 kg/m3 | –
1103.2 K | – | 2082.3 kg/m3 | –
1103.6 K | 0.05634 | – | –
1103.8 K | – | 2081.7 kg/m3 | –
1104.2 K | – | 2081.1 kg/m3 | –
1104.6 K | – | 2080.5 kg/m3 | –
1105.2 K | – | 2079.9 kg/m3 | –
1105.3 K | 0.05637 | – | –
1105.5 K | – | 2079.3 kg/m3 | –
1105.7 K | – | 2079.2 kg/m3 | –
1106.3 K | – | 2078.6 kg/m3 | –
1106.6 K | – | 2078 kg/m3 | –
1107 K | – | 2077.4 kg/m3 | –
1107.1 K | 0.05654 | – | –
1107.6 K | – | 2077.4 kg/m3 | –
1107.9 K | – | 2076.8 kg/m3 | –
1108.5 K | – | 2076.1 kg/m3 | –
1108.8 K | 0.05671 | 2076.1 kg/m3 | –
1109.1 K | – | 2074.4 kg/m3 | –
1109.5 K | – | 2073.8 kg/m3 | –
1110 K | – | 2073.2 kg/m3 | –
1110.3 K | – | 2073.1 kg/m3 | –
1110.5 K | 0.05682 | – | –
1110.6 K | – | 2072 kg/m3 | –
1111.2 K | – | 2071.9 kg/m3 | –
1111.6 K | – | 2071.3 kg/m3 | –
1111.8 K | – | 2070.8 kg/m3 | –
1112 K | – | – | 221.4
1112.3 K | 0.05703 | 2070.1 kg/m3 | –
1112.8 K | – | 2069.5 kg/m3 | –
1113 K | – | 2069.5 kg/m3 | –
1113.5 K | – | 2068.9 kg/m3 | –
1114 K | 0.05718 | – | –
1114.2 K | – | 2068.3 kg/m3 | –
1114.3 K | – | 2068.2 kg/m3 | –
1114.7 K | – | 2067.1 kg/m3 and 2067.6 kg/m3 | –
1114.9 K | – | 2066.5 kg/m3 | –
1115.4 K | – | 2066.4 kg/m3 | –
1115.7 K | 0.05729 | 2065.9 kg/m3 | –
1115.9 K | – | 2065.3 kg/m3 | –
1116.2 K | – | 2064.7 kg/m3 | –
1116.7 K | – | 2064.6 kg/m3 | –
1117 K | – | 2064 kg/m3 | –
1117.4 K | 0.05756 | – | –
1117.5 K | – | 2063.4 kg/m3 | –
1118 K | – | 2068.9 kg/m3 | –
1118.4 K | – | 2068.3 kg/m3 | –
1118.8 K | – | 2067.7 kg/m3 | –
1119 K | – | 2067.7 kg/m3 | –
1119.2 K | 0.05765 | – | –
1119.4 K | – | 2067.1 kg/m3 | –
1119.7 K | – | 2066.5 kg/m3 | –
1120.1 K | – | 2065.9 kg/m3 | –
1120.5 K | – | 2065.8 kg/m3 | –
1120.9 K | 0.0578 | – | –
1121 K | – | 2069.1 kg/m3 | –
1121.2 K | – | 2068.5 kg/m3 | –
1121.7 K | – | 2067.9 kg/m3 | –
1122.2 K | – | 2067.3 kg/m3 | –
1122.5 K | – | 2066.7 kg/m3 | –
1122.7 K | 0.05808 | – | –
1123.3 K | – | 2066.1 kg/m3 and 2066.6 kg/m3 | –
1123.7 K | – | 2065.5 kg/m3 | –
1124.4 K | 0.05824 | 2064.8 kg/m3 | –
1124.8 K | – | 2064.2 kg/m3 | –
1125.1 K | – | 2063.6 kg/m3 | –
1126 K | – | 2063.5 kg/m3 | –
1126.1 K | 0.05803 | – | –
1126.2 K | – | 2062.9 kg/m3 | –
1126.3 K | – | 2062.4 kg/m3 | –
1126.7 K | – | 2061.8 kg/m3 | –
1127.5 K | – | 2061.1 kg/m3 | –
1127.9 K | 0.05831 | 2060.5 kg/m3 and 2061.1 kg/m3 | –
1128.4 K | – | 2059.9 kg/m3 | –
1128.8 K | – | 2059.9 kg/m3 | –
1128.9 K | – | 2069.8 kg/m3 | –
1129.5 K | 0.0585 | – | –
1129.8 K | – | 2069.1 kg/m3 | –
1130.2 K | – | 2068.5 kg/m3 | –
1130.3 K | – | 2068 kg/m3 | –
1131 K | – | 2067.3 kg/m3 | 218.4
